Holding throughout (experiment): mass response relative to vehicle control (EMD distance of treated vs reference mass distribution minus control baseline) (% of mean reference cell mass); higher = larger drug-induced change in single-cell mass distribution (stronger response)
One assay relates to H929. How it is done:
(§1)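 Cancer cell lines were treated in vitro with drugs at the listed doses (about 24 h; 0.25% DMSO vehicle). Single-cell buoyant mass was measured on suspended microchannel resonator instruments with CNN image curation, 2500 cells per condition. Mass response is the Earth Mover's Distance to vehicle-treated reference cells as % of mean reference mass.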

In the next assay the test system is A549. How it is done:
as §1

For another assay, the system named is H2228. How it is done: as §1
The next assay has as its system HT-29. How it is done: as §1
The next assay deals with MV-4-11. How it is done: as §1
For another assay, the system named is H1666. How it is done: as §1
For another assay, the system named is MDA-MB-361. As for the experimental part: as §1
For the next assay, the system named is PA-TU-8902. How it is done: as §1
The test system of another assay is KMS-12-PE. How it is done: as §1

In the supplement of paper PMC9701192 one finds mass response data, which are given here for 25 molecules.

Counter-ions that a name gives are not always drawn. ± gives the uncertainty stated by the source.

Regarding `CCN1CCN(Cc2ccc(Nc3ncc(F)c(-c4cc(F)c5nc(C)n(C(C)C)c5c4)n3)nc2)CC1` [Abemaciclib], the mass response in the assay with H929 (0.05 µM) is 13.7 ± 3.8; with H929 (0.5 µM) it was 10.7 ± 3.7; in the assay with H929 (5 µM) it was 22.1 ± 2.2; in the assay with H929 (20 µM), 29.6 ± 1.8.
In the case of `CCc1cc2c(cc1N1CCC(N3CCOCC3)CC1)C(C)(C)c1[nH]c3cc(C#N)ccc3c1C2=O` [Alectinib], the mass response in the assay on A549 (0.1 µM) amounted to 3.04; in the assay on A549 (0.5 µM), 0.678; in the assay on A549 (1 µM), 3.27; in the assay with A549 (10 µM), 24.8.
As for `CC(C)C[C@H](NC(=O)[C@H](Cc1ccccc1)NC(=O)c1cnccn1)B(O)O` [Bortezomib], the mass response was -0.979 ± 1.1 in the assay with H929 (0.001 µM), 24.1 ± 2.9 with H929 (0.005 µM), 34.2 ± 4.2 in the assay with H929 (0.025 µM) and 33.7 ± 4.1 with H929 (0.05 µM).
Consider `COc1cc2nccc(Oc3ccc(NC(=O)C4(C(=O)Nc5ccc(F)cc5)CC4)cc3)c2cc1OC` [Cabozantinib], for which the mass response with H2228 (0.01 µM) was 0.815 ± 0.96; in the assay on H2228 (0.1 µM) it was 1.67 ± 0.69; in the assay with H2228 (1 µM), -1.71 ± 0.46; in the assay with H2228 (10 µM), 15.5 ± 1.
As for `CNC(=O)c1ccc(-c2cnc3ncc(Cc4ccc5ncccc5c4)n3n2)cc1F` [Capmatinib], the mass response is 1.15 ± 0.93 in the assay on HT-29 (0.01 µM), 1.02 ± 2.5 with HT-29 (0.1 µM), 3.42 ± 3 with HT-29 (1 µM) and 12.2 ± 4.3 with HT-29 (10 µM).
Take `Cc1cc(Nc2ncc(Cl)c(Nc3ccccc3S(=O)(=O)C(C)C)n2)c(OC(C)C)cc1C1CCNCC1` [Ceritinib]: the mass response was 2.19 ± 0.97 with H2228 (0.01 µM), 25.7 ± 7.5 in the assay on H2228 (0.1 µM), 27.4 ± 6.2 in the assay with H2228 (1 µM) and 61 ± 1 with H2228 (10 µM).
As for `C[C@@H](Oc1cc(-c2cnn(C3CCNCC3)c2)cnc1N)c1c(Cl)ccc(F)c1Cl` [Crizotinib], the mass response in the assay with A549 (0.01 µM) was -1.1 ± 0.55; in the assay on A549 (0.1 µM), -1.44 ± 0.16; with A549 (1 µM), 6.6 ± 1.6; with A549 (10 µM) it was 12.1 ± 0.61.
Take `Nc1ccn([C@@H]2O[C@H](CO)[C@@H](O)[C@@H]2O)c(=O)n1` [Cytarabine]: the mass response in the assay with MV-4-11 (0.001 µM) is -1.03 ± 0.38; with MV-4-11 (0.01 µM), 2.01 ± 0.69; in the assay on MV-4-11 (0.1 µM) it was 15 ± 1.3; in the assay with MV-4-11 (1 µM), 22.9 ± 0.31.
With `CC(C)(C)c1nc(-c2cccc(NS(=O)(=O)c3c(F)cccc3F)c2F)c(-c2ccnc(N)n2)s1` [Dabrafenib], the mass response in the assay with HT-29 (0.01 µM) stood at 10.7 ± 9.3; in the assay with HT-29 (0.1 µM) it was 19.1 ± 5.2; in the assay with HT-29 (1 µM) it was 24.3 ± 3.3; in the assay on HT-29 (10 µM) it was 16.9 ± 6.3.
Regarding `COC(=O)N[C@@H](C)CNc1nccc(-c2cn(C(C)C)nc2-c2cc(Cl)cc(NS(C)(=O)=O)c2F)n1` [Encorafenib], the mass response is 1.22 ± 0.73 with H1666 (0.01 µM), -0.00481 ± 0.44 with H1666 (0.1 µM), 11.9 ± 4.1 in the assay with H1666 (1 µM) and 20.6 ± 3.6 in the assay on H1666 (10 µM).
`COc1cccc2c1C(=O)c1c(O)c3c(c(O)c1C2=O)C[C@@](O)(C(=O)CO)C[C@@H]3O[C@H]1C[C@H](N)[C@@H](O)[C@H](C)O1` [Epirubicin]: the mass response with MDA-MB-361 (0.15 µM) was 10.2 ± 1.1; with MDA-MB-361 (0.625 µM), 10.7 ± 0.92; with MDA-MB-361 (2.5 µM), 8.33 ± 2.5; in the assay on MDA-MB-361 (10 µM), 13.1 ± 3.1.
For the molecule `CO[C@H]1C[C@@H]2CC[C@@H](C)[C@@](O)(O2)C(=O)C(=O)N2CCCC[C@H]2C(=O)O[C@H]([C@H](C)C[C@@H]2CC[C@@H](OCCO)[C@H](OC)C2)CC(=O)[C@H](C)/C=C(\C)[C@@H](O)[C@@H](OC)C(=O)[C@H](C)C[C@H](C)/C=C/C=C/C=C/1C` [Everolimus], the mass response was 8.53 ± 1.9 with PA-TU-8902 (0.5 µM), 9.89 ± 5.3 in the assay with PA-TU-8902 (5 µM), 8.18 ± 4 in the assay with PA-TU-8902 (20 µM) and 16.6 ± 7 in the assay on PA-TU-8902 (50 µM).
Take `O=c1[nH]cc(F)c(=O)[nH]1` [Fluorouracil]: the mass response in the assay on PA-TU-8902 (25 µM) is -2.58 ± 0.15; with PA-TU-8902 (50 µM), 1.92 ± 7; in the assay on PA-TU-8902 (0.0001 M), 8.61 ± 5.8; with PA-TU-8902 (0.00025 M), 30.2 ± 2.5.
For `Nc1ccn([C@@H]2O[C@H](CO)[C@@H](O)C2(F)F)c(=O)n1` [Gemcitabine], the mass response with PA-TU-8902 (0.002 µM) came to 11.2 ± 4.4; with PA-TU-8902 (0.02 µM), 7.94 ± 0.91; with PA-TU-8902 (0.2 µM) it was 5.91 ± 0.96; in the assay with PA-TU-8902 (2 µM), 15.9 ± 3.
As for `CS(=O)(=O)CCNCc1ccc(-c2ccc3ncnc(Nc4ccc(OCc5cccc(F)c5)c(Cl)c4)c3c2)o1` [Lapatinib], the mass response was found to be 0.147 ± 0.5 in the assay with MDA-MB-361 (0.1 µM), 6.42 ± 1.7 with MDA-MB-361 (1 µM), 19.6 ± 1.1 with MDA-MB-361 (10 µM) and 19.5 ± 2.4 with MDA-MB-361 (0.0001 M).
With `O=C(c1cc(Cc2n[nH]c(=O)c3ccccc23)ccc1F)N1CCN(C(=O)C2CC2)CC1` [Olaparib], the mass response in the assay with MDA-MB-361 (0.1 µM) was found to be 1.31 ± 3.8; with MDA-MB-361 (1 µM), 1.01 ± 3.2; in the assay on MDA-MB-361 (10 µM) it was 17.9 ± 9.6; with MDA-MB-361 (0.0001 M), 25 ± 4.
As for `O=C(O)C(=O)O.[NH-][C@@H]1CCCC[C@H]1[NH-].[Pt+2]` [Oxaliplatin], the mass response with PA-TU-8902 (0.5 µM) stood at 5.04 ± 2.9; in the assay on PA-TU-8902 (5 µM) it was 1.26 ± 5; in the assay on PA-TU-8902 (25 µM) it was 27.3 ± 9.2; with PA-TU-8902 (50 µM) it was 45.7 ± 3.4.
As for `Nc1nc2[nH]cc(CCc3ccc(C(=O)N[C@@H](CCC(=O)O)C(=O)O)cc3)c2c(=O)[nH]1` [Pemetrexed], the mass response in the assay on MDA-MB-361 (0.5 µM) came out at 14.4 ± 3.6; in the assay with MDA-MB-361 (1 µM) it was 15.2 ± 2.1; in the assay on MDA-MB-361 (5 µM), 19 ± 2.9; in the assay on MDA-MB-361 (50 µM), 21.8 ± 2.8.
`CN(C)C(=O)c1cc2cnc(Nc3ccc(N4CCNCC4)cn3)nc2n1C1CCCC1` [Ribociclib]: the mass response turned out to be 2.31 ± 0.72 with H929 (0.1 µM), 0.00401 ± 0.89 in the assay with H929 (1 µM), 1.33 ± 1.2 in the assay with H929 (10 µM) and 14.2 ± 3.9 with H929 (50 µM).
For the molecule `CCc1c2c(nc3ccc(O)cc13)-c1cc3c(c(=O)n1C2)COC(=O)[C@]3(O)CC` [SN-38], the mass response in the assay with HT-29 (0.01 µM) is 15.5 ± 0.51; with HT-29 (0.1 µM) it was 11.1 ± 2.3; in the assay with HT-29 (1 µM), 10.6 ± 0.61; in the assay with HT-29 (10 µM) it was 18 ± 3.
On to `Cn1ncnc1[C@H]1c2n[nH]c(=O)c3cc(F)cc(c23)N[C@@H]1c1ccc(F)cc1` [Talazoparib], for which the mass response with MDA-MB-361 (0.2 µM) is 8.83 ± 4.3; with MDA-MB-361 (2 µM), 8.66 ± 2.9; with MDA-MB-361 (20 µM) it was 11.8 ± 3.6; with MDA-MB-361 (50 µM) it was 13.1 ± 6.4.
For `CC(=O)Nc1cccc(-n2c(=O)n(C3CC3)c(=O)c3c(Nc4ccc(I)cc4F)n(C)c(=O)c(C)c32)c1` [Trametinib], the mass response in the assay on HT-29 (0.01 µM) amounted to 26.9 ± 6.7; in the assay with HT-29 (0.1 µM), 27.1 ± 3.4; with HT-29 (1 µM), 23.5 ± 0.46; in the assay with HT-29 (10 µM), 24.4 ± 0.46.
In the same order, the values of `CCCS(=O)(=O)Nc1ccc(F)c(C(=O)c2c[nH]c3ncc(-c4ccc(Cl)cc4)cc23)c1F` [Vemurafenib] are -0.111 ± 1.9, 2.67 ± 0.19, 16.5 ± 2.6 and 24.3 ± 2.1.
Consider `CC1(C)CCC(CN2CCN(c3ccc(C(=O)NS(=O)(=O)c4ccc(NCC5CCOCC5)c([N+](=O)[O-])c4)c(Oc4cnc5[nH]ccc5c4)c3)CC2)=C(c2ccc(Cl)cc2)C1` [Venetoclax], for which the mass response with KMS-12-PE (0.005 µM) was determined as 0.784 ± 4.6; in the assay with KMS-12-PE (0.05 µM) it was 22.2 ± 0.87; in the assay on KMS-12-PE (0.5 µM), 35.5 ± 0.37; in the assay on KMS-12-PE (5 µM) it was 39.9 ± 4.1.
For the molecule `CCC1=C[C@@H]2CN(C1)Cc1c([nH]c3ccccc13)[C@@](C(=O)OC)(c1cc3c(cc1OC)N(C)[C@H]1[C@@](O)(C(=O)OC)[C@H](OC(C)=O)[C@]4(CC)C=CCN5CC[C@]31[C@@H]54)C2` [Vinorelbine Tartrate], the mass response is 0.302 ± 2.8 in the assay with MDA-MB-361 (0.002 µM), 13 ± 0.57 in the assay with MDA-MB-361 (0.02 µM), 14.6 ± 1.1 in the assay with MDA-MB-361 (0.2 µM) and 13.1 ± 1.9 in the assay on MDA-MB-361 (2 µM).
